# In patent US7449495B2, “Retinoid derivatives with antiangiogenic, antitumoral and proapoptotic activities” (Sigma-Tau Industrie Farmaceutiche Riunite S.p.A., priority 2001, dated 2008):
# pIC50: −log10 of the molar value.
# Key:
# [1] = tested on: human prostate carcinoma PC3 cells; assay: Cyto-fluorometric cell cycle analysis, PC3; assay type: cell-based; design: key to APOPTOSIS: % of cells (cell cycle phase percentages)
# Method: To evaluate the effect of the compound according to the invention, on various phases of the cell cycle, cyto-fluorometric cell cycle analyses were performed.
# On the third day of treatment 500.000 cells were sampled, centrifuged at 180×g for 5 minutes, washed twice in calcium and magnesium free PBS. The cells (1×10^6/ml of fixative) were fixed for at least 1 hour in a fixation mixture comprised of acetone/methanol 1:4 v/v maintained at −20° C. and 50% of calcium and magnesium free PBS; then the cells were centrifuged, washed in calcium and magnesium free PBS, and again centrifuged and washed. The cellular precipitate was incubated for 30 minutes in the dark at room temperature with 200 μl of […] (100 μg/ml) and 200 μl of RNAse (150 KU/mg).
# The samples with filtered through nylon filters (60-80 μm diameter) and analysed by cyto-fluorimeter FACScan (Becton Dickinson), acquiring 20000 events/sample, at an excitation wavelength of 488 nm and emission wavelength of 620 nm. The analysis of the percentages of the cell cycle phases was performed using a dedicated software package, Modfit v. 2.0 (Becton Dickinson).
# For the cell cycle analysis of prostate carcinoma cells PC3, the cells were seeded in plates at a density of 500000 cells/ml in RPMI medium. After treatment with compound ST1926 for 24 hours, cells were analysed as described above.
# [2] = tested on: Human ovarian carcinoma A2780; assay: Cytotoxicity test (sulphorodamine B), A2780; assay type: cell-based; settings: 24 h incubation, survival 48 h after removal
# Description: (§1) Different cell lines deriving from solid tumors were also used. • 1. Human prostate carcinoma PC3 and DU145. These cell lines were maintained in RPMI 1640 medium containing 10% FCS, 1% sodium pyruvate and 1% glutamine; • 2. Human colon adenocarcinoma LoVo. This cell line was maintained in HAM's F-12 medium, containing 10% FCS and 1% glutamine. • 3. Human ovarian carcinoma such as A2780 and A2780/Dx, sensitive and resistant to drugs, respectively (doxorubicin, taxol, etoposide, vincristine); IGROV-1 and IGROV-1/Pt, sensitive and resistant to platinum-based chemotherapy, respectively, were maintained in RPMI 1640 medium containing 10% FCS, 1% sodium pyruvate and 1% glutamine; • 4. Human melanoma MeWo and MeS 2.21, glioblastoma GBM, no small cell lung carcinomas A431, NCI—H460, osteosarcomas SAOS and U2OS were maintained in RPMI 1640 medium containing 10% FCS, 1% sodium pyruvate and 1% glutamine.
# (§2) The cytotoxicity tests were carried out using NB4 or HL-60 cells in suspension (10000/well). The cells were seeded in a volume of 250 μl in 96 well plates and incubated for 24 hours at 37° C. […] The optical density was measured using a Multiskan spectrophotometer at 540 nm. […]
# (§3) Cell survival was determined by incubation with ST1926 for 24 hours, 48 hours after the removal of the compound. […]
# [3] = tested on: vitamin-A deficient hamster trachea in organ culture; settings: cited from earlier work
# osteosarcoma SAOS = assay: Cytotoxicity test (sulphorodamine B), SAOS; assay type: cell-based; settings: Homo sapiens, 24 h incubation, survival 48 h after removal
# Description: as §1, §2, §3
# [4] = tested on: Human prostate carcinoma DU145; assay: Cytotoxicity test (sulphorodamine B), DU145; assay type: cell-based; settings: DU-145, 24 h incubation, survival 48 h after removal
# Description: as §1, §2, §3
# Human melanoma MeS 2.21 = assay: Cytotoxicity test (sulphorodamine B), MeS 2.21; assay type: cell-based; settings: 24 h incubation, survival 48 h after removal
# Description: as §1, §2, §3
# Human melanoma MeWo = assay: Cytotoxicity test (sulphorodamine B), MeWo; assay type: cell-based; settings: 24 h incubation, survival 48 h after removal
# Description: as §1, §2, §3
# osteosarcoma U2OS = assay: Cytotoxicity test (sulphorodamine B), U2OS; assay type: cell-based; settings: Homo sapiens, 24 h incubation, survival 48 h after removal
# Description: as §1, §2, §3
# [5] = PC3, 0.02 μM, 24 hours of treatment and 0 hours of recovery
# [6] = PC3, 0.02 μM, 24 hours of treatment and 24 hours of recovery
# [7] = PC3, 0.05 μM, 24 hours of treatment and 0 hours of recovery
# [8] = PC3, 0.05 μM, 24 hours of treatment and 24 hours of recovery
# [9] = PC3, 0.1 μM, 24 hours of treatment and 0 hours of recovery
# [10] = PC3, 0.1 μM, 24 hours of treatment and 24 hours of recovery
# [11] = PC3, 0.2 μM, 24 hours of treatment and 24 hours of recovery
structure (smiles),measurement,setting,value
"O=C(O)/C=C/c1ccc(-c2ccc(O)c(C34CC5CC(CC(C5)C3)C4)c2)cc1 [ST1926, E-4-(3-(1-adamantyl)-4-hydroxyphenyl)cinnamic acid]",APOPTOSIS,[1]; [5],9
same,G0/G1,[1]; [5],54.0
same,G2 + M,[1]; [5],21.8
same,S,[1]; [5],24.2
same,APOPTOSIS,[1]; [6],13
same,G0/G1,[1]; [6],44.6
same,G2 + M,[1]; [6],25.0
same,S,[1]; [6],30.4
same,APOPTOSIS,[1]; [7],11
same,G0/G1,[1]; [7],55.8
same,G2 + M,[1]; [7],20.6
same,S,[1]; [7],23.6
same,APOPTOSIS,[1]; [8],15
same,G0/G1,[1]; [8],44.9
same,G2 + M,[1]; [8],25.6
same,S,[1]; [8],29.5
same,APOPTOSIS,[1]; [9],10
same,G0/G1,[1]; [9],52.0
same,G2 + M,[1]; [9],28.0
same,S,[1]; [9],35.4
same,APOPTOSIS,[1]; [10],10
same,G0/G1,[1]; [10],45.8
same,G2 + M,[1]; [10],28.4
same,S,[1]; [10],25.8
same,APOPTOSIS,"[1]; PC3, 0.2 μM, 24 hours of treatment and 0 hours of recovery",13.5
same,APOPTOSIS,[1]; [11],13
same,G0/G1,[1]; [11],31.8
same,G2 + M,[1]; [11],25.0
same,S,[1]; [11],43.2
same,effect on PC3 cells at the end of treatment (in words),"[1]; PC3, 0.4 μM, 24 hours of treatment",induced apoptosis
same,APOPTOSIS,"[1]; PC3, 0.4 μM, 24 hours of treatment and 0 hours of recovery",25
same,APOPTOSIS,"[1]; PC3, 0.4 μM, 24 hours of treatment and 24 hours of recovery",26
same,pIC50,[2],7.00
same,activity in the TOC assay compared with compound 1 (in words),[3],lower activities
same,pIC50,osteosarcoma SAOS,6.60
same,pIC50,[4],7.00
same,pIC50,Human melanoma MeS 2.21,6.64
same,pIC50,Human melanoma MeWo,6.64
same,pIC50,osteosarcoma U2OS,6.59
